Measured values: patent publication US6355799B1, “Substituted benzene compounds, process for their preparation, and herbicidal and defoliant compositions containing them” (ISK Americas Incorporated, priority 1997, dated 2002)

Columns and labels:
Assay type in all cases: in vivo
[1] = system: large crabgrass (Digitaria sanguinalis, DIGSA); experiment: Pre-emerge test, greenhouse herbicide activity screening; conditions: rating scale 0-100, 14 days after application
How it was run: (§1)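 Compounds in acetone were track-sprayed at 15–1000 g ai/ha: pre-emergence onto soil sown the previous day, then top-watered to incorporate and later bottom-watered; post-emergence onto 2–3 leaf plants with 0.25% v/v surfactant, bottom-watered only. Ratings on a 0–100 phytotoxicity scale were taken at day 14.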

[2] = system: barnyardgrass (Echinochloa crus-galli, ECHCG); experiment: as above; conditions: rating scale 0-100, 14 days after application
How it was run: as §1

[3] = system: velvetleaf (Abutilon theophrasti, ABUTH); experiment: as above; conditions: rating scale 0-100, 14 days after application
How it was run: as §1

[4] = system: ivyleaf morningglory (Ipomoea hederacea, IPOHE); experiment: as above; conditions: rating scale 0-100, 14 days after application
How it was run: as §1

[5] = system: green foxtail (Setaria viridis, SETVI); experiment: as above; conditions: rating scale 0-100, 14 days after application
How it was run: as §1

[6] = system: lambsquarters (Chenopodium album, CHEAL); experiment: as above; conditions: rating scale 0-100, 14 days after application
How it was run: as §1

[7] = system: sicklepod (Cassia obtusifolia, CASOB); experiment: as above; conditions: rating scale 0-100, 14 days after application
How it was run: as §1

[8] = system: johnsongrass (Sorghum halepense, SORHA); experiment: as above; conditions: rating scale 0-100, 14 days after application
How it was run: as §1

[9] = system: redroot pigweed (Amaranthus retroflexus, AMARE); experiment: as above; conditions: rating scale 0-100, 14 days after application
How it was run: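 Sandy loam pots; pre-emerge: sown 1 d pre-spray, surface-watered after, then bottom-watered. Post-emerge: sown 8–21 d before, 2–3 leaf stage, + 0.25% v/v NIS, bottom-watered. Acetone, 187 l/ha track spray, 15–1000 g ai/ha. 0–100 injury score, day 14.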

[10] = system: upland rice (Oryza sp., var. Tebonnet, RICE); experiment: Pre-emerge test, crop safety; conditions: rating scale 0-100, 14 days after application
How it was run: (§2)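 Compounds in acetone were track-sprayed at 187 l/ha, 15–1000 g ai/ha, onto sandy loam pots. Pre-emerge seeds were sown one day before spraying, with surface watering afterwards. Post-emerge plants were at the 2–3 leaf stage and sprayed with 0.25% v/v non-ionic surfactant. Injury was rated 0–100 at 14 days.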

[11] = system: field corn (Zea mays L., var. Dekalb 535, CORN); experiment: Pre-emerge test, crop safety; conditions: rating scale 0-100, 14 days after application
How it was run: as §2

[12] = system: large crabgrass (Digitaria sanguinalis, DIGSA); experiment: Post-emerge test, greenhouse herbicide activity screening; conditions: rating scale 0-100 (0 no damage, 100 complete death), 14 days after application
How it was run: as §2

[13] = system: barnyardgrass (Echinochloa crus-galli, ECHCG); experiment: as above; conditions: rating scale 0-100 (0 no damage, 100 complete death), 14 days after application
How it was run: as §2

[14] = system: velvetleaf (Abutilon theophrasti, ABUTH); experiment: as above; conditions: rating scale 0-100 (0 no damage, 100 complete death), 14 days after application
How it was run: as §2

[15] = system: ivyleaf morningglory (Ipomoea hederacea, IPOHE); experiment: as above; conditions: rating scale 0-100 (0 no damage, 100 complete death), 14 days after application
How it was run: as §2

[16] = system: green foxtail (Setaria viridis, SETVI); experiment: as above; conditions: rating scale 0-100 (0 no damage, 100 complete death), 14 days after application
How it was run: as §2

[17] = system: common ragweed (Ambrosia artemisizfolia L., AMBEL); experiment: as above; conditions: rating scale 0-100 (0 no damage, 100 complete death), 14 days after application
How it was run: as §2

[18] = system: lambsquarters (Chenopodium album, CHEAL); experiment: as above; conditions: rating scale 0-100 (0 no damage, 100 complete death), 14 days after application
How it was run: as §2

[19] = system: sicklepod (Cassia obtusifolia, CASOB); experiment: as above; conditions: rating scale 0-100 (0 no damage, 100 complete death), 14 days after application
How it was run: as §2

[20] = system: redroot pigweed (Amaranthus retroflexus, AMARE); experiment: as above; conditions: rating scale 0-100 (0 no damage, 100 complete death), 14 days after application
How it was run: as §2

[21] = system: johnsongrass (Sorghum halepense, SORHA); experiment: as above; conditions: rating scale 0-100 (0 no damage, 100 complete death), 14 days after application
How it was run: as §2

[22] = system: upland rice (Oryza sp., var. Tebonnet, RICE); experiment: Post-emerge test, crop safety; conditions: rating scale 0-100 (0 no damage, 100 complete death), 14 days after application
How it was run: (§3)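 Rating: 0–100 visual injury, 14 DAA. Application: acetone, 187 l/ha, 15–1000 g ai/ha, flat-fan track sprayer with nozzle 40–45 cm above soil or canopy. Post-emerge runs used 0.25% v/v surfactant on 2–3 leaf plants.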

[23] = system: field corn (Zea mays L., var. Dekalb 535, CORN); experiment: Post-emerge test, crop safety; conditions: rating scale 0-100 (0 no damage, 100 complete death), 14 days after application
How it was run: as §3

In the case of `COc1c(Cl)cc(F)c(-n2c(=O)cc(C(F)(F)F)n(C)c2=O)c1CC(Cl)C(=O)OCC(F)(F)C(F)(F)C(F)(F)F` (single isomer, unassigned) [14-24], the “Pre-emerge herbicidal activity, phytotoxicity rating DIGSA” value ([1]; 63 g ai/ha) is reported as 20, the “Pre-emerge herbicidal activity, phytotoxicity rating DIGSA” value ([1]; 250 g ai/ha) is reported as 80 and the “Pre-emerge herbicidal activity, phytotoxicity rating ECHCG” value ([2]; 63 g ai/ha) is reported as 0. The “Pre-emerge herbicidal activity, phytotoxicity rating ECHCG” value ([2]; 250 g ai/ha) was 0, the “Pre-emerge herbicidal activity, phytotoxicity rating ABUTH” value ([3]; 63 g ai/ha) was 0 and the “Pre-emerge herbicidal activity, phytotoxicity rating ABUTH” value ([3]; 250 g ai/ha) was 80. For the same molecule, the “Pre-emerge herbicidal activity, phytotoxicity rating IPOHE” value ([4]; 63 g ai/ha) was 0, the “Pre-emerge herbicidal activity, phytotoxicity rating IPOHE” value ([4]; 250 g ai/ha) was 0 and the “Pre-emerge herbicidal activity, phytotoxicity rating SETVI” value ([5]; 63 g ai/ha) was 0. For the same molecule, the “Pre-emerge herbicidal activity, phytotoxicity rating SETVI” value ([5]; 250 g ai/ha) was 0, the “Pre-emerge herbicidal activity, phytotoxicity rating CHEAL” value ([6]; 63 g ai/ha) was 0 and the “Pre-emerge herbicidal activity, phytotoxicity rating CHEAL” value ([6]; 250 g ai/ha) was 50. The “Pre-emerge herbicidal activity, phytotoxicity rating CASOB” value ([7]; 63 g ai/ha) was 0, the “Pre-emerge herbicidal activity, phytotoxicity rating CASOB” value ([7]; 250 g ai/ha) was 30 and the “Pre-emerge herbicidal activity, phytotoxicity rating SORHA” value ([8]; 63 g ai/ha) was 0. The “Pre-emerge herbicidal activity, phytotoxicity rating SORHA” value ([8]; 250 g ai/ha) was 0, the “Pre-emerge herbicidal activity, phytotoxicity rating AMARE” value ([9]; 63 g ai/ha) was 50 and the “Pre-emerge herbicidal activity, phytotoxicity rating AMARE” value ([9]; 250 g ai/ha) was 100. For the same molecule, the “Pre-emerge phytotoxicity rating, crop damage RICE” value ([10]; 63 g ai/ha) was 0, the “Pre-emerge phytotoxicity rating, crop damage RICE” value ([10]; 250 g ai/ha) was 20 and the “Pre-emerge phytotoxicity rating, crop damage CORN” value ([11]; 63 g ai/ha) was 0. The “Pre-emerge phytotoxicity rating, crop damage CORN” value ([11]; 250 g ai/ha) was 0, the “Post-emerge Herbicidal Activity, phytotoxicity rating DIGSA” value ([12]; Rate 63 g ai/ha) was 95 and the “Post-emerge Herbicidal Activity, phytotoxicity rating DIGSA” value ([12]; Rate 250 g ai/ha) was 100. For the same molecule, the “Post-emerge Herbicidal Activity, phytotoxicity rating ECHCG” value ([13]; Rate 63 g ai/ha) was 100, the “Post-emerge Herbicidal Activity, phytotoxicity rating ECHCG” value ([13]; Rate 250 g ai/ha) was 100 and the “Post-emerge Herbicidal Activity, phytotoxicity rating ABUTH” value ([14]; Rate 63 g ai/ha) was 70. The “Post-emerge Herbicidal Activity, phytotoxicity rating ABUTH” value ([14]; Rate 250 g ai/ha) was 100, the “Post-emerge Herbicidal Activity, phytotoxicity rating IPOHE” value ([15]; Rate 63 g ai/ha) was 20 and the “Post-emerge Herbicidal Activity, phytotoxicity rating IPOHE” value ([15]; Rate 250 g ai/ha) was 40. For the same molecule, the “Post-emerge Herbicidal Activity, phytotoxicity rating SETVI” value ([16]; Rate 63 g ai/ha) was 0, the “Post-emerge Herbicidal Activity, phytotoxicity rating SETVI” value ([16]; Rate 250 g ai/ha) was 50 and the “Post-emerge Herbicidal Activity, phytotoxicity rating AMBEL” value ([17]; Rate 63 g ai/ha) was 50. For the same molecule, the “Post-emerge Herbicidal Activity, phytotoxicity rating AMBEL” value ([17]; Rate 250 g ai/ha) was 50, the “Post-emerge Herbicidal Activity, phytotoxicity rating CHEAL” value ([18]; Rate 63 g ai/ha) was 80 and the “Post-emerge Herbicidal Activity, phytotoxicity rating CHEAL” value ([18]; Rate 250 g ai/ha) was 90. For the same molecule, the “Post-emerge Herbicidal Activity, phytotoxicity rating CASOB” value ([19]; Rate 63 g ai/ha) was 0, the “Post-emerge Herbicidal Activity, phytotoxicity rating CASOB” value ([19]; Rate 250 g ai/ha) was 0 and the “Post-emerge Herbicidal Activity, phytotoxicity rating AMARE” value ([20]; Rate 63 g ai/ha) was 40. The “Post-emerge Herbicidal Activity, phytotoxicity rating AMARE” value ([20]; Rate 250 g ai/ha) was 90, the “Post-emerge Herbicidal Activity, phytotoxicity rating SORHA” value ([21]; Rate 63 g ai/ha) was 0 and the “Post-emerge Herbicidal Activity, phytotoxicity rating SORHA” value ([21]; Rate 250 g ai/ha) was 50. The “Post-emerge phytotoxicity rating RICE (crop damage)” value ([22]; Rate 63 g ai/ha) was 10, the “Post-emerge phytotoxicity rating RICE (crop damage)” value ([22]; Rate 250 g ai/ha) was 50 and the “Post-emerge phytotoxicity rating CORN (crop damage)” value ([23]; Rate 63 g ai/ha) was 10. The “Post-emerge phytotoxicity rating CORN (crop damage)” value ([23]; Rate 250 g ai/ha) was 20.
